Measurements from patent US8779157B2, “MGLUR4 allosteric potentiators, compositions, and methods of treating neurological dysfunction” (Vanderbilt University, priority 2009, dated 2014).

Target: mGluR4 (UniProt Q14833)
Assay: mGluR4 potentiation assay (fluorescence, Ca2+ or thallium/GIRK readout; EC20 agonist)
Type: cell-based, human / rat
Conditions: half maximal effective concentration for mGluR4 potentiation; species of receptor not given
Outline: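 Human mGluR4 in CHO cells (Ca2+ dye) or rat mGluR4 with GIRK in HEK cells (thallium dye), read kinetically. Potentiation EC50 and maximum fitted from compound concentration-response at fixed agonist.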

Point of comparison: `CC12CCCCN1C(=O)N(c1ccc(NC(=O)c3ccc(Cl)o3)cc1Cl)C2=O` (stereo not drawn) [Example 1.3.89, 5-chloro-N-(3-chloro-4-(8a-methyl-1,3-dioxohexahydroimidazo[1,5-a]pyridin-2(3H)-yl)phenyl)furan-2-carboxamide], EC50 4670 nM. Against it:
- O=C(Nc1ccc(N2C(=O)C3CCCCN3C2=S)c(Cl)c1)c1cccc(F)n1 (stereo not drawn) [Example 1.3.83, N-(3-chloro-4-(1-oxo-3-thioxohexahydroimidazo[1,5-a]pyridin-2(3H)-yl)phenyl)-6-fluoropicolinamide] — 13-fold lower, 354 nM
- O=C(Nc1ccc(N2C(=O)C3CCCCN3C2=S)c(Cl)c1)c1ncccc1F (stereo not drawn) [Example 1.3.84, N-(3-chloro-4-(1-oxo-3-thioxohexahydroimidazo[1,5-a]pyridin-2(3H)-yl)phenyl)-3-fluoropicolinamide] — 4.7-fold lower, 993 nM
- CC12CCCCN1C(=O)N(c1ccc(NC(=O)c3cccc(Cl)n3)cc1Cl)C2=O (stereo not drawn) [Example 1.3.85, 6-chloro-N-(3-chloro-4-(8a-methyl-1,3-dioxohexahydroimidazo[1,5-a]pyridin-2(3H)-yl)phenyl)picolinamide] — 5.4-fold lower, 864 nM
- CC12CCCCN1C(=O)N(c1ccc(NC(=O)c3nccs3)cc1Cl)C2=O (stereo not drawn) [Example 1.3.86, N-(3-chloro-4-(8a-methyl-1,3-dioxohexahydroimidazo[1,5-a]pyridin-2(3H)-yl)phenyl)thiazole-2-carboxamide] — 2.9-fold lower, 1630 nM
- CC12CCCCN1C(=O)N(c1ccc(NC(=O)c3cscn3)cc1Cl)C2=O (stereo not drawn) [Example 1.3.87, N-(3-chloro-4-(8a-methyl-1,3-dioxohexahydroimidazo[1,5-a]pyridin-2(3H)-yl)phenyl)thiazole-4-carboxamide] — 1.7-fold lower, 2670 nM
- CC12CCCCN1C(=O)N(c1ccc(NC(=O)c3ncc(F)cc3F)cc1Cl)C2=O (stereo not drawn) [Example 1.3.88, N-(3-chloro-4-(8a-methyl-1,3-dioxohexahydroimidazo[1,5-a]pyridin-2(3H)-yl)phenyl)-3,5-difluoropicolinamide] — 4.2-fold lower, 1100 nM
- CC12CCCCN1C(=O)N(c1ccc(NC(=O)c3cccc(F)n3)cc1Cl)C2=O (stereo not drawn) [Example 1.3.90, N-(3-chloro-4-(8a-methyl-1,3-dioxohexahydroimidazo[1,5-a]pyridin-2(3H)-yl)phenyl)-6-fluoropicolinamide] — 4.2-fold lower, 1120 nM
- CC12CCCCN1C(=O)N(c1ccc(NC(=O)c3ncccc3F)cc1Cl)C2=O (stereo not drawn) [Example 1.3.91, N-(3-chloro-4-(8a-methyl-1,3-dioxohexahydroimidazo[1,5-a]pyridin-2(3H)-yl)phenyl)-3-fluoropicolinamide] — within 1.5-fold, 3790 nM
- CC12CCCCN1C(=S)N(c1ccc(NC(=O)c3cnccn3)cc1Cl)C2=O (stereo not drawn) [Example 1.3.92, N-(3-chloro-4-(8a-methyl-1-oxo-3-thioxohexahydroimidazo[1,5-a]pyridin-2(3H)-yl)phenyl)pyrazine-2-carboxamide] — 2.4-fold lower, 1910 nM
- CC12CCCCN1C(=S)N(c1ccc(NC(=O)c3cccc(Cl)n3)cc1Cl)C2=O (stereo not drawn) [Example 1.3.93, 6-chloro-N-(3-chloro-4-(8a-methyl-1-oxo-3-thioxohexahydroimidazo[1,5-a]pyridin-2(3H)-yl)phenyl)picolinamide] — 1.9-fold lower, 2400 nM
- CC12CCCCN1C(=S)N(c1ccc(NC(=O)c3nccs3)cc1Cl)C2=O (stereo not drawn) [Example 1.3.94, N-(3-chloro-4-(8a-methyl-1-oxo-3-thioxohexahydroimidazo[1,5-a]pyridin-2(3H)-yl)phenyl)thiazole-2-carboxamide] — 6.1-fold lower, 761 nM
- CC12CCCCN1C(=S)N(c1ccc(NC(=O)c3cscn3)cc1Cl)C2=O (stereo not drawn) [Example 1.3.95, N-(3-chloro-4-(8a-methyl-1-oxo-3-thioxohexahydroimidazo[1,5-a]pyridin-2(3H)-yl)phenyl)thiazole-4-carboxamide] — 4.4-fold lower, 1050 nM
- CC12CCCCN1C(=S)N(c1ccc(NC(=O)c3ncc(F)cc3F)cc1Cl)C2=O (stereo not drawn) [Example 1.3.96, N-(3-chloro-4-(8a-methyl-1-oxo-3-thioxohexahydroimidazo[1,5-a]pyridin-2(3H)-yl)phenyl)-3,5-difluoropicolinamide] — 16-fold lower, 295 nM
- CC12CCCCN1C(=S)N(c1ccc(NC(=O)c3ccc(Cl)o3)cc1Cl)C2=O (stereo not drawn) [Example 1.3.97, 5-chloro-N-(3-chloro-4-(8a-methyl-1-oxo-3-thioxohexahydroimidazo[1,5-a]pyridin-2(3H)-yl)phenyl)furan-2-carboxamide] — 5.6-fold lower, 828 nM
- CC12CCCCN1C(=S)N(c1ccc(NC(=O)c3cccc(F)n3)cc1Cl)C2=O (stereo not drawn) [Example 1.3.98, N-(3-chloro-4-(8a-methyl-1-oxo-3-thioxohexahydroimidazo[1,5-a]pyridin-2(3H)-yl)phenyl)-6-fluoropicolinamide] — 9.9-fold lower, 470 nM
- CC12CCCCN1C(=S)N(c1ccc(NC(=O)c3ncccc3F)cc1Cl)C2=O (stereo not drawn) [Example 1.3.99, N-(3-chloro-4-(8a-methyl-1-oxo-3-thioxohexahydroimidazo[1,5-a]pyridin-2(3H)-yl)phenyl)-3-fluoropicolinamide] — 7.2-fold lower, 650 nM
- CC12CCCCN1C(=S)N(c1ccc(NC(=O)c3cccnn3)cc1Cl)C2=O (stereo not drawn) [Example 1.3.100, N-(3-chloro-4-(8a-methyl-1-oxo-3-thioxohexahydroimidazo[1,5-a]pyridin-2(3H)-yl)phenyl)pyridazine-3-carboxamide] — 2.5-fold lower, 1900 nM
